The target in assay [1] is T1, M. tuberculosis RecA intein (Mycobacterium tuberculosis, UniProt P9WHJ3).
T1 sequence (P9WHJ3 with tags, fused parts or gaps): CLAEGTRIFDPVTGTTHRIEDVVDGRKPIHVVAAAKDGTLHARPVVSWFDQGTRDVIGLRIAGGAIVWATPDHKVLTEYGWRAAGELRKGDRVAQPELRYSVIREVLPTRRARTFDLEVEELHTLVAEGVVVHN
Type of assay: biochemical.

In assay [2] the test system is Mtu H37Rv. As to the kind of experiment: Mtu H37Rv MIC. Type of assay: cell-based, M. tuberculosis.
Assay [3] has as its system BCG. As to the kind of experiment: BCG MIC. It counts as cell-based.
For assay [4], the system named is Mtu H37Rv. The assay can be described thus: Alamar Blue reduction inhibition measured by TAACF. Type of assay: cell-based, M. tuberculosis. The note with it: Mycobacterium tuberculosis, at 6.25 μg/ml, as measured by TAACF.

SMILES strings stand for the structures. Values after ≈ are worked out from the molar mass of the structure shown. Marks after values point to notes of the source that are not given here.

Regarding `Oc1cc2c(cc1C(c1ccc(Cl)c(Cl)c1)N1CCCC1)OCO2` (stereo not drawn) [Compound 1], half-maximal inhibition in assay [1] (IC50) required 5 µM.

Compound `CCCN(CCC)S(=O)(=O)c1ccc(C(=O)SCC(=O)OCC)cc1` [Compound 2] came in with an IC50 in assay [1] of 8 µM.

Compound `CS(=O)(=O)c1cc(C(F)(F)F)cc(S(C)(=O)=O)c1S(C)(=O)=O` [Compound 3] showed an IC50 in assay [1] of 10 µM. Besides, in assay [2], the “Mtu H37Rv MIC” value is 20^a μg/ml. Besides, in assay [3], the “BCG MIC” value came to 20 µg/mL.

The compound `CC(=O)c1cc([N+](=O)[O-])c(Sc2ccc(Cl)cc2)s1` [Compound 4] showed an IC50 in assay [1] of 5 µM.

`O=S(=O)(c1ccc(Br)cc1)c1snnc1-c1ccccc1` [Compound 6] yielded an inhibition at 6.25 µg/mL in assay [4] of 32%. Moreover, the concentration for half-maximal inhibition (IC50) in assay [1] amounted to 4 µM.

As for `O=S(=O)(c1ccc(Cl)c(Cl)c1)c1snnc1-c1ccccc1` [Compound 7], the inhibition at 6.25 µg/mL in assay [4] is 96%.

Regarding `O=C1CSC(c2ccc(Cl)cc2)C(=O)N1c1ccc(C(F)(F)F)cc1` (stereo not drawn) [Compound 8], half-maximal inhibition in assay [1] (IC50) required 5 µM.

In turn, `COc1ccc(NC(=O)C(Cl)=C(Cl)[S+]([O-])Cc2ccccc2)cn1` (stereo not drawn) [Compound 9] came in with an IC50 in assay [1] of 10 µM. Moreover, the “Mtu H37Rv MIC” value in assay [2] is recorded as 5^d μg/ml. Moreover, the “BCG MIC” value in assay [3] was found to be 5 µg/mL.

Compound `O=C(Nc1ccccc1)c1nnsc1S(=O)(=O)c1ccc(Cl)cc1` [Compound 10] displayed a concentration for half-maximal inhibition (IC50) in assay [1] of 8 µM.

Consider `O=C(c1nnsc1[S+]([O-])c1ccc(Cl)cc1)N1CCCCC1` (stereo not drawn) [Compound 11], for which, in assay [1], the IC50 turned out to be 4 µM. In addition, in assay [2], the “Mtu H37Rv MIC” value was 5 µg/mL. Besides, the “BCG MIC” value in assay [3] came out at 5 µg/mL.

In the case of `O=C(Nc1ccc(F)cc1)c1nnsc1S(=O)(=O)c1ccc(Cl)cc1` [Compound 12], it took 3 µM to reach half-maximal inhibition in assay [1] (IC50). For the same compound, the “Mtu H37Rv MIC” value in assay [2] was 10 µg/mL. Besides, in assay [3], the “BCG MIC” value is 20 µg/mL.

The compound `O=C(CCl)N1CCN2C(=O)c3ccccc3C12c1ccc(Cl)cc1` (stereo not drawn) [Compound 13] returned an IC50 in assay [1] of 4 µM. Further, in assay [2], the “Mtu H37Rv MIC” value is 10 µg/mL. Besides, in assay [3], the “BCG MIC” value came to 20 µg/mL.

Take `N#CC1(C#N)C(c2cccc(I)c2)C(C(N)=O)N2C=Cc3ccccc3C21` (stereo not drawn) [Compound 17]: it took 20 µM to reach half-maximal inhibition in assay [1] (IC50).

In assay [1], `N#CC1(C#N)C(c2ccccc2Cl)C1(C#N)C#N` [Compound 21] gave a half-maximal inhibitory concentration (IC50) of 8 µM.

`CSC(Nc1ccc(F)cc1)=C(C#N)C(=O)c1ccco1` [Compound 22] gave an IC50 in assay [1] of 3 µM. In assay [2], the “Mtu H37Rv MIC” value was 20 µg/mL.

For `O=C(Oc1ccc(Cl)cc1)c1snnc1-c1ccccc1` [Compound 23], inhibition in assay [1] was half-maximal at 3 µM (IC50).

As for `N#CCSc1ccc(C#N)cc1` [Compound 24], the half-maximal inhibitory concentration (IC50) in assay [1] is 11 µM. In assay [2] (Mycobacterium tuberculosis, H37RV), this compound registered an MIC of 5 µg/mL (≈ 28.7 µM).

With `C=CCn1c(Sc2ncnc3c2sc(=S)n3CC=C)nnc1-c1ccccc1` [Compound 27], in assay [1], half-maximal inhibition (IC50) was put at 2 µM.

For the compound `N#CC(N)=C(C#N)NCc1ccccc1Sc1ccc(Cl)cc1` [Compound 29], the midpoint of inhibition in assay [1], the IC50, lay at 30 µM.

`CC1(C)CC(=O)c2c(S(C)(=O)=O)sc(C(=O)OCc3ccccc3)c2C1` [Compound 30] had an IC50 in assay [1] of 5 µM. Moreover, the “BCG MIC” value in assay [3] worked out at 20 µg/mL.

Turning to `N#Cc1nccnc1S(=O)(=O)c1cccs1` [Compound 31], in assay [1], it took 5 µM to reach half-maximal inhibition (IC50). Moreover, the “Mtu H37Rv MIC” value in assay [2] is 10 µg/mL. The “BCG MIC” value in assay [3] amounted to 6 µg/mL.

As to `COC(=O)c1sc(S(C)(=O)=O)c(C#N)c1-c1cc(C(C)(C)C)oc1C` [Compound 33], the IC50 in assay [1] worked out at 4 µM.

`O=S(=O)(c1cccc(C(F)(F)F)c1)c1snnc1-c1ccccc1` [Compound 35] returned a 50% inhibitory concentration (IC50) in assay [1] of 1 µM. Moreover, the MIC in assay [3] (Mycobacterium tuberculosis variant bovis BCG, BCG, read-out: BCG MIC) is 20 µg/mL (≈ 54 µM).

In the case of `O=S(=O)(Cc1cccc(C(F)(F)F)c1)c1snnc1-c1ccccc1` [Compound 36], it took 5 µM to reach half-maximal inhibition in assay [1] (IC50).

The compound `CC1(C)CC(=O)C2(C(=O)C1)C(c1ccc(Cl)cc1Cl)C2(C#N)C#N` (stereo not drawn) [Compound 37] registered an IC50 in assay [1] of 5 µM.

On to `O=C(OCn1ncc(Cl)c(Cl)c1=O)c1cccc(C(F)(F)F)c1` [Compound 38], for which the IC50 in assay [1] stood at 0.8 µM.

With `Cn1cc(C(=O)c2cccc(Cl)c2Cl)cc1C(=O)C(Cl)(Cl)Cl` [Compound 40], the half-inhibitory concentration (IC50) in assay [1] was 5 µM.

In assay [1], `CCOC(=O)c1nnc(-c2ccccc2)nc1Sc1ccccc1C(=O)OC` [Compound 41] registered an IC50 of 2 µM.

The compound `COc1ccc(NC(=O)C(Cl)=C(Cl)[S+]([O-])Cc2ccc(C)cc2)cn1` (stereo not drawn) [Compound 43] displayed an IC50 in assay [1] of 3 µM. Moreover, in assay [2], the “Mtu H37Rv MIC” value came out at 2.5 µg/mL. Further, the “BCG MIC” value in assay [3] was 1 µg/mL.

Turning to `Oc1cc(OCc2ccc(C(F)(F)F)cc2)ccc1-c1cc[nH]n1` [Compound 44], the IC50 in assay [1] turned out to be 5 µM.

`[O-][S+](c1ccc(C(F)(F)F)cc1)c1cnn2c(Cl)nnc2c1` (stereo not drawn) [Compound 45] came in with an IC50 in assay [1] of 5 µM. The “Mtu H37Rv MIC” value in assay [2] stood at 2.5 µg/mL. Moreover, the “BCG MIC” value in assay [3] amounted to 5 µg/mL.

Regarding `COc1cccc(N(NC(=O)C(O)(c2cccc(C(F)(F)F)c2)c2cccc(C(F)(F)F)c2)C(=O)CCl)c1` [Compound 51], in assay [1], the half-inhibitory concentration (IC50) amounted to 2 µM.

`O=C(Nn1c(C2CCCCC2)nc2ccccc2c1=O)c1cc([N+](=O)[O-])cc([N+](=O)[O-])c1Cl` [Compound 53] displayed an IC50 in assay [1] of 1 µM. Also, the “BCG MIC” value in assay [3] is approximately 20 µg/mL.

For `O=[N+]([O-])c1cc(C(F)(F)F)cc([N+](=O)[O-])c1Sc1nc2ccccc2[nH]1` [Compound 55], the midpoint of inhibition in assay [1], the IC50, lay at 15 µM. Besides, in assay [2], the “Mtu H37Rv MIC” value was 20 µg/mL. Besides, the “BCG MIC” value in assay [3] was found to be 5 µg/mL.

Consider `CCOC(=O)CSc1nc2c(c(-c3cccs3)c1C#N)CN(C)CC2` [Compound 56], for which the IC50 in assay [1] is less than 35 µM.

As for `O=C(CCl)c1ccc(Cc2ncc(C(F)(F)F)cc2Cl)s1` [Compound 57], the IC50 in assay [1] is less than 5 µM.

In assay [1], `O=C(c1c[nH]c(C(=O)C(Cl)(Cl)Cl)c1)c1cccc(Cl)c1Cl` [Compound 59] had an IC50 of less than 5 µM.

`O=C(c1c[nH]c(C(=O)C(Cl)(Cl)Cl)c1)c1ccc(Cl)cc1Cl` [Compound 62]: the IC50 in assay [1] is less than 5 µM.

Turning to `Cc1cc(Oc2c([N+](=O)[O-])cc(C(F)(F)F)cc2[N+](=O)[O-])ccc1Cl` [Compound 64], the IC50 in assay [1] was determined as 6 µM.

On to `Cc1cc(S(=O)(=O)c2ccc(C(F)(F)F)cc2[N+](=O)[O-])c(Cl)cc1Cl` [Compound 66], for which the half-maximal inhibitory concentration (IC50) in assay [1] was less than 5 µM. Moreover, in assay [3], the “BCG MIC” value is more than 20 µg/mL.

As for `CCOC(=O)c1cnc2c(F)ccc(F)c2c1Oc1cncc(Cl)c1` [Compound 67], the IC50 in assay [1] was less than 5 µM.

Turning to `O=C(Sc1ccccc1)c1ccc2ncsc2c1` [Compound 68], in assay [1], it took 8 µM to reach half-maximal inhibition (IC50).

In turn, `Oc1cc2c(cc1C(c1ccc(C(F)(F)F)cc1)N1CCOCC1)OCO2` (stereo not drawn) [Compound 69] showed an IC50 in assay [1] of less than 5 µM.

The compound `Oc1ccc(Br)cc1CNc1cccc(C(F)(F)F)c1` [Compound 70] displayed an IC50 in assay [1] of 12 µM.

Take `CCOC(=O)c1cc(C#N)c(Sc2nnc(SCC3CC3)s2)nc1C(F)(F)F` [Compound 71]: the concentration for half-maximal inhibition (IC50) in assay [1] is less than 5 µM. Besides, the “Mtu H37Rv MIC” value in assay [2] was determined as 10 µg/mL. Besides, in assay [3], the “BCG MIC” value turned out to be 10 µg/mL.

`CCOC(=O)c1cc(C#N)c(Sc2nnc(SC)s2)nc1C(F)(F)F` [Compound 72]: in assay [1], the IC50 is less than 5 µM. Further, the “Mtu H37Rv MIC” value in assay [2] came to 10 µg/mL. Also, in assay [3], the “BCG MIC” value is 10 µg/mL.

In turn, `c1ccc(-c2cnc3nonc3n2)cc1` [Compound 74] had an IC50 in assay [1] of less than 5 µM.

As to `O=C(Oc1cc(OC(=O)c2ccco2)cc(OC(=O)c2ccco2)c1)c1ccco1` [Compound 75], the IC50 in assay [1] is less than 5 µM.

In assay [1], `O=C(Oc1ccc(Br)cc1)c1ccco1` [Compound 76] showed an IC50 of 8 µM.

In assay [1], `O=C(Oc1ccc(C=Nc2ccc(F)cc2)cc1)c1ccco1` [Compound 77] returned an IC50 of 30 µM.

Take `O=C(Oc1ccc(C=Nc2ccc(F)cc2)cc1)c1cccs1` [Compound 78]: the half-maximal inhibitory concentration (IC50) in assay [1] amounted to 13 µM.

`Cc1nn(C(N)=S)c(O)c1C(c1cccc(Cl)c1Cl)C(C#N)C#N` (stereo not drawn) [Compound 81] displayed an IC50 in assay [1] of 12 µM.

The values above are taken from patent US7553832B2, “Methods and compositions for specific inhibition of protein splicing by small molecules” (Boston Biomedical Research Institute, priority 2005, dated 2009).
